Experimental data published in patent publication US7141541B1, “Use of peptides” (University Court of the University of Dundee, priority 1999, dated 2006).
Where no end group is shown, it is not given here.

Experiments:
[1] = biological target: recombinant human eIF4E (Homo sapiens, UniProt P06730); experiment: in vitro binding (pull-down) assay with eIF4E; details: FIG. 4, FIG. 5
Protocol: (§1) Sequences of biotinylated, penetratin-linked peptides. U=Norvaline, a substitution for cysteine. Conserved residues that are important in binding to eIF4E are underlined. b). In vitro binding assay. i) 1 μg recombinant eIF4E was incubated with 0.2 mM biotinylated peptides in a total volume of 50 μl wash buffer (1×PBS/250 mM Kcl) for 1 h at 4° C. ii) 0.2 mM Hu4G or Hu4G YLL-AAA was incubated with 200 μg MRC5 cell lysate for 1 h at 4° C. in a total volume of 50 μl wash buffer. In all cases the biotinylated peptides and associated proteins were pulled down using streptavidin agarose. The proteins were separated by SDS PAGE and subjected to Western blotting using anti-eIF4E antibody. Detection was by ECL;
In order to study directly the role of eIF4E in cell transformation, a series of biotinylated synthetic peptides (Peptides synthesised by Cyclacel) corresponding to the eIF4E interacting domain (binding motif) of human eIF4G, and wheat eIF4G and alanine substituted peptides thereof were synthesised (see FIG. 12a) and tested for their capacity to interact with ^35S-Met labelled in vitro translated human eIF4E (NB. Peptides BP1 and BP1 YLM-AAA were not biotinylated). Peptides were coupled to streptavidin coated agarose beads by a N-terminus linked biotin group and washed in PBS/0.2% Tween 3× before being incubated for 1 hour at +4° C. with in vitro translated human eIF4E. Beads were washed as above and boiled for 5 min. in SDS loading buffer before the peptide bound proteins were separated on a 10% SDS gel. The bands were visualised by autoradiography.

[2] = biological target: T1, eIF4E in MRC5 cell lysate (Homo sapiens, UniProt P06730); experiment: pull-down of eIF4E from MRC5 cell lysate; format: binding; details: 0.2 mM peptide, 200 μg MRC5 cell lysate, 1 h at 4° C.
T1 construct: endogenous in cells; host or cells: MRC5
Protocol: as §1

[3] = test system: HaCaT cells; experiment: cytotoxic or cytostatic effect on HaCaT cells; format: cell-based
[4] = test system: MRC5 cells; experiment: peptide-induced cell death (apoptosis) in MRC5 cells; format: cell-based
From the text: FIG. 8 is a table illustrating the induction of apoptosis by eIF4G peptides in MRC5 cells;
FIG. 9 is a summary of the results of inhibition of eIF4G(413-424)-induced apoptosis;

[5] = test system: MRC5 cells; experiment: cell survival by MTT assay; format: cell-based; details: various concentrations, 72 h serum-starved MRC5 cells, FIGS. 13b,c,d
Protocol: FIGS. 13a–d are graphs showing cell survival (% of control, untreated cells) as measured by MTT assay. a) Lane 1: 10 μM BP2 peptide added to serum-fed cells or Lane 2, 3, 4: 10 μM BP2 peptide added to 24 h, 48 h or 72 h serum-starved cells respectively. Lane 5: 10 μM BP2 YLL-AAA added to 72 h serum starved cells. Lane 6: 72 h serum starved cells incubated in 10% serum for 1 h prior to addition to 10 μM BP2 peptide. Lane 7: 72 h serum starved cells incubated with 100 μg/ml cycloheximide followed by a 1 h incubation with 10% serum prior to the addition of 10 μM BP2 peptide. In all cases the cells were then further incubated for 1 h in 0.1 mg/ml MTT. Cells were lysed in DMSO and absorbance was measured at […]. b–d) Varying concentrations of peptides were added to 72 h serum starved MRC5 cells. After 30 min incubation the cells were then further incubated for 1 h in 0.1 mg/ml MTT. Cells were lysed in DMSO and absorbance was measured at 570 nm.

[6] = test system: MRC5 cells; experiment: TUNEL analysis; format: cell-based; details: 10 μM peptide, 10 min
Protocol: (§2) MRC5 cells were incubated with 10 μM Hu4G peptide for 10 min. Cells visualised with fluorescein by fluorescence microscopy. […] 80% of cells incubated with the 10 μM Hu4G peptide fluoresced positive. d) Images of DAPI-stained MRC5 cells incubated with either 20 μM Hu4G or Hu4G YLL-AAA peptide for 40 min. Arrows indicate the position of a cell with either a condensed nucleus (top right) or a nucleus with a punctate appearance (bottom left). e) Visualisation of effects on the MPT. Serum-starved MRC5 cells were loaded with 0.1 μM JCl for 30 min prior to addition of 10 μM peptide. Changes in mitochondrial permeability were viewed by laser scanning confocal microscopy (krypton/argon laser) using identical setting. Green channel: excitation 488 nm/emission 522 nm. Red channel: excitation 568 nm/emission 585 nm. Channels were collected separately to avoid cross over. Images were taken 5 min after addition of the peptide;

[7] = test system: MRC5 cells; experiment: FACS analysis of propidium iodide-stained cells; format: cell-based; details: 20 μM, 40 min
[8] = test system: MRC5 cells; experiment: DAPI staining of cell nuclei; format: cell-based; details: 20 μM, 40 min
Protocol: as §2

[9] = test system: MRC5 cells; experiment: mitochondrial permeability transition (JC1 dye, confocal microscopy); format: cell-based; details: 10 μM peptide, serum-starved MRC5 cells
Protocol: as §2
An early event considered decisive in apoptosis is the opening of the mitochondrial permeability transition (MPT) pore (20–22). To characterise further the eIF4E-binding peptide-induced cell death, the development of the MPT was investigated in living MRC5 cells loaded with the fluorescent dye, JC1 (21).

[10] = test system: HaCaT, Swiss 3T3, RATI and IIeLa cells; experiment: cell survival in other cell-types; format: cell-based; details: results not shown
[11] = test system: MRC5 cells; experiment: [35S]methionine incorporation into protein; format: cell-based; details: serum deprived cells, 30 minutes
Protocol: (§3) FIG. 16 illustrates that eIF4E binding peptide cell death is not through eIF4E's known role in mRNA translation. a) 72 h serum-starved MRC5 cells were treated with 100 μg/ml and 10 μg/ml cylcoheximide, 1 μg/ml and 0.1 μg/ml pactamycine or 10 μM Hu4G peptide for 2 h prior to a MTT assay. Cells were pulsed labelled with [^35S]methionine for 30 min after addition of the inhibitors/peptide. The incorporation of [^35S]methionine into protein was determined following hot trichloroacetic acid precipitation. b) 72 h serum-starved MRC5 cells were treated with 100 μg/ml cycloheximide (Chx), 1 μg/ml pactamycine (Pact) or c) MRC5 cells which had been starved of serum for 72 h were pre-incubated with 100 μg/ml cycloheximide or 1 μg/ml pactamycine for 30 min prior to addition of 10 μM Hu4G peptide. Cells were then further incubated for 1.5 h prior to a MTT assay. Results from three independent experiments (+/− SEM).
Serum deprived cells were treated with the general translation inhibitors Cyclohexamide or Pactamycin at indicated concentrations or the H4G peptide in the presence of 35S-Met for 30 minutes (see FIGS. 16a,b). Cells were lysed and the amount of translation was estimated by counting incorporated 35S-Met in precipitated protein fractions.

[12] = test system: MRC5 cells; experiment: MTT assay with general translation inhibitors (FIG. 16); format: cell-based; details: serum deprived cells
Protocol: as §3

T1 sequence (P06730 whole entry): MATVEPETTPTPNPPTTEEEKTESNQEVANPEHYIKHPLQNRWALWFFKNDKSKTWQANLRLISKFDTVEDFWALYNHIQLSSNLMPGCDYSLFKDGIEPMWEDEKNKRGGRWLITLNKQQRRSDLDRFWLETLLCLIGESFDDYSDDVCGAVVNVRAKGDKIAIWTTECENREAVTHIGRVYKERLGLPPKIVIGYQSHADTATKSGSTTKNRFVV
recombinant human eIF4E, sequence (P06730 whole entry): as above

## Hu4G: biotinylated, penetratin-linked peptide of the eIF4E binding motif of human eIF4G (KKRYDREFLLGFRQIKIWFQNRRMKWKK; also: biotinylated)
[1]
  binding to recombinant human eIF4E in vitro: found to bind recombinant human eIF4E in vitro
[2]
  binding of eIF4E in cell lysates: bound eIF4E in cell lysates
[3]; 60 h serum starved cells
  time until cells began to die after peptide treatment: ≤ 15 min
[3]; HaCaT cells, <24 h with 20 μM
  effect with short treatment: no effect observed
[3]; selected cell lines
  cytotoxic or cytostatic effect: exhibited a cytotoxic or cytostatic effect on selected cell lines
[4]; FIG. 9
  effect of limited serum treatment on sensitivity to the peptide: Resistance
[4]; serum starved cell lines, FIG. 8
  cell death (possibly by apoptosis): caused rapid cell death
[5]
  cell death / cell viability: rapid, dose-dependent, cell death
[6]
  cells fluoresced positive (TUNEL): 80%
[7]
  DNA profile: shift in the DNA profile from G0/1 to sub G0/1
[8]
  nuclear condensation: signs of nuclear condensation
[9]
  changes in JC1 fluorescence (MPT pore opening): rapid increase
  time to increase in green fluorescence with loss of orange fluorescence: ≤ 5 min
[10]
  cell survival: rapid cell death
[11]
  incorporation of 35S-Met (translation): do not incorporate 35S-Met
[12]
  cell killing: they die
